Molecular target: T1, CSF-1R (His-tagged kinase domain, amino acids 568-912) (Homo sapiens, UniProt P07333)
T1 construct: The His-tagged kinase domain of CSF-1R (i.e., amino acids 568-912, GeneBank ID NM_005211); His; made in house; host or cells: baculovirus infected SF+Express insect cells
T1 sequence (P07333 568-912): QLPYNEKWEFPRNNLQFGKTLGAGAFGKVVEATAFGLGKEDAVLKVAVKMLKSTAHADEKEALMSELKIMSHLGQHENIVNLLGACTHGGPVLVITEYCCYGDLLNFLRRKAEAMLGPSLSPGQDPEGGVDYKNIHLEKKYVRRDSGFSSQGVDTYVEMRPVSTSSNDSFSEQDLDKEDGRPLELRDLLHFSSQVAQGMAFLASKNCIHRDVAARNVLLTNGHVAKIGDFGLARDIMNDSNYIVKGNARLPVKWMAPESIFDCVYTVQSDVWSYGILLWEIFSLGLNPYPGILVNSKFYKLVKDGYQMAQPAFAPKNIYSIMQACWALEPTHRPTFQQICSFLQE
Test: Assay 1: CSF-1R in vitro AlphaScreen Assay
Assay type: biochemical
Settings: phosphorylation of pEY substrate; 0.57 nM CSF-1R, 90 μM ATP
Description: Assay 1: CSF-1R in vitro AlphaScreen Assay
Activity of purified CSF-1R was determined in vitro using an Amplified Luminescent Proximity Homogeneous Assay (ALPHA) (Perkin Elmer), which measures phosphorylation of the CSF-1R substrate, biotinylated poly-glutamine-tyrosine peptide (pEY-HTRF CisBio 61GT0BLD), as described below.
The phosphorylation of the CSF-1R substrate in the presence and absence of the compound of interest was determined. […] Plates were incubated at 25° C. for 18 hours in the dark. Phosphorylated substrate was detected by an EnVision plate reader (Perkin Elmer) 680 nm excitation, 520-620 nm emission. Data was graphed and IC50s calculated using Excel Fit (Microsoft).

| IC50 [nM] | Structure (SMILES) |
| --- | --- |
| 8 | COc1cc2nnc(C(N)=O)c(Nc3ccc(C)cc3F)c2cc1OC [Example 2, 4-[(2-Fluoro-4-methylphenyl)amino]-6,7-dimethoxycinnoline-3-carboxamide] |
| < 3 | COc1cc2nnc(C(N)=O)c(Nc3cccc(Cl)c3Cl)c2cc1OC [Example 5, 4-[(2,3-Dichlorophenyl)amino]-6,7-dimethoxycinnoline-3-carboxamide] |
| < 15 | CCOc1cc2nnc(C(N)=O)c(Nc3cccc(Cl)c3F)c2cc1N1CCN(C)CC1 [Example 9, 4-[(3-Chloro-2-fluoro-phenyl)amino]-7-ethoxy-6-(4-methylpiperazin-1-yl)cinnoline-3-carboxamide] |
| < 3 | CCOc1cc2nnc(C(N)=O)c(Nc3ccc(C)cc3F)c2cc1N1CCN(C)CC1 [Example 10, 7-Ethoxy-4-[(2-fluoro-4-methyl-phenyl)amino]-6-(4-methylpiperazin-1-yl)cinnoline-3-carboxamide] |
| < 3 | COc1cc2nnc(C(N)=O)c(Nc3cccc(Cl)c3F)c2cc1N1CCN(C)CC1 [Example 14, 4-[(3-Chloro-2-fluorophenyl)amino]-7-methoxy-6-(4-methylpiperazin-1-yl)cinnoline-3-carboxamide] |
| < 3 | COCCOc1cc2nnc(C(N)=O)c(Nc3ccc(C)cc3F)c2cc1N1CCN(C)CC1 [Example 18, 4-[(2-Fluoro-4-methylphenyl)amino]-7-(2-methoxyethoxy)-6-(4-methylpiperazin-1-yl)cinnoline-3-carboxamide] |
| < 3 | COCCOc1cc2nnc(C(N)=O)c(Nc3cc(C)ccc3F)c2cc1N1CCN(C)CC1 [Example 19, 4-[(2-Fluoro-5-methylphenyl)amino]-7-(2-methoxyethoxy)-6-(4-methylpiperazin-1-yl)cinnoline-3-carboxamide] |
| < 3 | COc1cc2nnc(C(N)=O)c(Nc3ccc(F)cc3F)c2cc1N1CCN(C)CC1 [Example 20, 4-[(2,4-Difluorophenyl)amino]-7-methoxy-6-(4-methylpiperazin-1-yl)cinnoline-3-carboxamide] |
| < 3 | COCCOc1cc2nnc(C(N)=O)c(Nc3cccc(Cl)c3F)c2cc1N1CCN(C)CC1 [Example 21, 4-[(3-Chloro-2-fluorophenyl)amino]-7-(2-methoxyethoxy)-6-(4-methylpiperazin-1-yl)cinnoline-3-carboxamide] |
| < 3 | COc1cc2nnc(C(N)=O)c(Nc3cc(C)ccc3F)c2cc1N1CCN(C)CC1 [Example 22, 4-[(2-Fluoro-5-methylphenyl)amino]-7-methoxy-6-(4-methylpiperazin-1-yl)cinnoline-3-carboxamide] |
| < 3 | CCOc1cc2nnc(C(N)=O)c(Nc3ccc(C)cc3F)c2cc1N1CCCN(C)CC1 [Example 27, 7-Ethoxy-4-[(2-fluoro-4-methylphenyl)amino]-6-(4-methyl-1,4-diazepan-1-yl)cinnoline-3-carboxamide] |

Second part, the compound before the results:

| Structure (SMILES) | IC50 [nM] |
| --- | --- |
| COc1cc2nnc(C(N)=O)c(Nc3ccc(F)cc3F)c2cc1OC [Example 1, 4-[(2,4-Difluorophenyl)amino]-6,7-dimethoxycinnoline-3-carboxamide] | < 3 |
| COc1cc2nnc(C(N)=O)c(Nc3cc(C)ccc3F)c2cc1OC [Example 4, 4-[(2-Fluoro-5-methylphenyl)amino]-6,7-dimethoxycinnoline-3-carboxamide] | 5 |
| CCOc1cc2nnc(C(N)=O)c(Nc3cc(C)ccc3F)c2cc1N1CCN(C)CC1 [Example 6, 7-Ethoxy-4-[(2-fluoro-5-methylphenyl)amino]-6-(4-methylpiperazin-1-yl)cinnoline-3-carboxamide] | < 3 |
| CCOc1cc2nnc(C(N)=O)c(Nc3cccc(Cl)c3Cl)c2cc1N1CCN(C)CC1 [Example 8, 4-[(2,3-Dichlorophenyl)amino]-7-ethoxy-6-(4-methylpiperazin-1-yl)cinnoline-3-carboxamide] | 3 |
| CCOc1cc2nnc(C(N)=O)c(Nc3ccc(F)cc3F)c2cc1N1CCN(C(C)C)CC1 [Example 11, 4-[(2,4-Difluorophenyl)amino]-7-ethoxy-6-(4-propan-2-ylpiperazin-1-yl)cinnoline-3-carboxamide] | 8 |
| CCOc1cc2nnc(C(N)=O)c(Nc3ccc(F)cc3F)c2cc1N1CCN(CC)CC1 [Example 12, 4-[(2,4-Difluorophenyl)amino]-7-ethoxy-6-(4-ethylpiperazin-1-yl)cinnoline-3-carboxamide] | 5 |
| COc1cc2nnc(C(N)=O)c(Nc3ccc(C)cc3F)c2cc1N1CCN(C(C)(C)C)CC1 [Example 16, 6-(4-tert-Butylpiperazin-1-yl)-4-[(2-fluoro-4-methylphenyl)amino]-7-methoxycinnoline-3-carboxamide] | 9 |
| COCCOc1cc2nnc(C(N)=O)c(Nc3ccc(F)cc3F)c2cc1N1CCN(C)CC1 [Example 17, 4-[(2,4-Difluorophenyl)amino]-7-(2-methoxyethoxy)-6-(4-methylpiperazin-1-yl)cinnoline-3-carboxamide] | < 3 |
| COc1cc2nnc(C(N)=O)c(Nc3cc(C)ccc3F)c2cc1N1CCN(C(C)C)CC1 [Example 23, 4-[(2-Fluoro-5-methylphenyl)amino]-6-(4-isopropylpiperazin-1-yl)-7-methoxycinnoline-3-carboxamide] | < 5 |
| COCCOc1cc2nnc(C(N)=O)c(Nc3ccc(F)cc3F)c2cc1N1CCN(C(C)C)CC1 [Example 24, 4-[(2,4-Difluorophenyl)amino]-6-(4-isopropylpiperazin-1-yl)-7-(2-methoxyethoxy)cinnoline-3-carboxamide] | < 3 |
| CCOc1cc2nnc(C(N)=O)c(Nc3ccc(C)cc3F)c2cc1N1CCN(C(C)C)CC1 [Example 25, 7-Ethoxy-4-[(2-fluoro-4-methylphenyl)amino]-6-(4-isopropylpiperazin-1-yl)cinnoline-3-carboxamide] | < 3 |
| COc1cc2nnc(C(N)=O)c(Nc3ccc(C)cc3F)c2cc1-c1ccncc1 [Example 26, 4-[(2-Fluoro-4-methylphenyl)amino]-7-methoxy-6-pyridin-4-ylcinnoline-3-carboxamide] | 51 |
| CCOc1cc2nnc(C(N)=O)c(Nc3ccc(C)cc3F)c2cc1N1C[C@@H](C)N[C@@H](C)C1 [Example 28, 6-[(3R,5S)-3,5-Dimethylpiperazin-1-yl]-7-ethoxy-4-[(2-fluoro-4-methylphenyl)amino]cinnoline-3-carboxamide] | < 3 |

— patent publication US20110098283A1, “3-CINNOLINECARBOXAMIDE DERIVATIVES AND THEIR USE FOR TREATING CANCER” (ASTRAZENECA AB, priority 2007, published 2011)
